Measured values as given in ChEMBL document CHEMBL1154297, “Inhibitor profiling of the Pseudomonas aeruginosa virulence factor LasB using N-alpha mercaptoamide template-based inhibitors” (Bioorg Med Chem Lett, 2009).

target: Elastase (Pseudomonas aeruginosa (strain ATCC 15692 / PAO1 / 1C / PRS 101 / LMG12228), UniProt P14756); assay: Inhibition of Pseudomonas aeruginosa LasB by fluorimetric assay in buffer of pH 7.2; details: not given
Sequence (P14756 whole entry): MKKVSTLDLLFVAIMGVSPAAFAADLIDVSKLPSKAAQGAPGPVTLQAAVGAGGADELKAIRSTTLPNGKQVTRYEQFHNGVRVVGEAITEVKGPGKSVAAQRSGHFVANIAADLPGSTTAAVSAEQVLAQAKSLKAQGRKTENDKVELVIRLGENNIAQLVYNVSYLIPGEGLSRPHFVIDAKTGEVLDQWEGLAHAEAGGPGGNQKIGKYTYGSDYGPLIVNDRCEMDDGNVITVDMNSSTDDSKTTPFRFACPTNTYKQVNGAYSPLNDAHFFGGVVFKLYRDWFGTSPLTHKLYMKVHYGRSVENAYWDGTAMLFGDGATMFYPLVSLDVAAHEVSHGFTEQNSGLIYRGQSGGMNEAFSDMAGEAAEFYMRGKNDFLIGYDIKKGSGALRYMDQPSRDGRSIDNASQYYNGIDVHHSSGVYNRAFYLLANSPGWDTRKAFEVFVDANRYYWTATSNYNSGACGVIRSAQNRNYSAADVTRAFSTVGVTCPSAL

Row | SMILES | Ki
1 | NC(=O)[C@H](CC(=O)O)NC(=O)[C@H](CS)NC(=O)CS | Not Active
2 | N=C(N)NCCC[C@H](NC(=O)[C@H](Cc1c[nH]cn1)NC(=O)CS)C(N)=O | Not Active
3 | CC(C)C[C@H](NC(=O)[C@@H](NC(=O)CS)[C@@H](C)O)C(N)=O | Not Active
4 | NC(=O)CC[C@H](NC(=O)CS)C(=O)N[C@@H](CC(=O)O)C(N)=O | Not Active
5 | NC(=O)[C@H](CC(=O)O)NC(=O)[C@H](CO)NC(=O)CS | Not Active
6 | NC(=O)[C@H](CC(=O)O)NC(=O)CNC(=O)CS | Not Active
7 | CC(C)[C@H](NC(=O)CS)C(=O)N[C@@H](CC(=O)O)C(N)=O | Not Active
8 | CC(C)C[C@H](NC(=O)[C@H](CS)NC(=O)CS)C(N)=O | Not Active
9 | NC(=O)[C@H](Cc1c[nH]c2ccccc12)NC(=O)[C@H](CO)NC(=O)CS | Not Active
10 | CC(C)C[C@H](NC(=O)[C@H](CCCNC(=N)N)NC(=O)CS)C(N)=O | Not Active
11 | NC(=O)CC[C@H](NC(=O)CS)C(=O)N[C@@H](Cc1ccccc1)C(N)=O | Not Active
12 | NC(=O)[C@H](CC(=O)O)NC(=O)[C@H](CCC(=O)O)NC(=O)CS | Not Active
13 | NC(=O)[C@H](Cc1ccccc1)NC(=O)[C@H](CC(=O)O)NC(=O)CS | Not Active
14 | N=C(N)NCCC[C@H](NC(=O)[C@H](Cc1ccccc1)NC(=O)CS)C(N)=O | Not Active
15 | C[C@@H](O)[C@H](NC(=O)CS)C(=O)N[C@@H](CC(=O)O)C(N)=O | Not Active
16 | NC(=O)[C@H](CC(=O)O)NC(=O)[C@@H]1CCCN1C(=O)CS | Not Active
17 | CSCC[C@H](NC(=O)CS)C(=O)N[C@@H](CC(C)C)C(N)=O | Not Active
18 | CC(C)C[C@H](NC(=O)[C@H](CCC(=O)O)NC(=O)CS)C(N)=O | Not Active
19 | CC(C)C[C@H](NC(=O)CS)C(=O)N[C@H](C(N)=O)C(C)C | Not Active
20 | C[C@@H](O)[C@H](NC(=O)CS)C(=O)N[C@@H](CCCCN)C(N)=O | Not Active
21 | N=C(N)NCCC[C@H](NC(=O)[C@H](CCC(=O)O)NC(=O)CS)C(N)=O | Not Active
22 | NCCCC[C@H](NC(=O)[C@H](CO)NC(=O)CS)C(N)=O | Not Active
23 | N=C(N)NCCC[C@H](NC(=O)[C@H](CCCCN)NC(=O)CS)C(N)=O | Not Active
24 | NC(=O)[C@H](CC(=O)O)NC(=O)[C@H](CC(=O)O)NC(=O)CS | Not Active
25 | N=C(N)NCCC[C@H](NC(=O)[C@H](CCCNC(=N)N)NC(=O)CS)C(N)=O | Not Active
26 | CC[C@@H](C)[C@H](NC(=O)CS)C(=O)N[C@@H](Cc1ccccc1)C(N)=O | Not Active

same assay, conditions: read-out: Ki

Row | SMILES | Ki [µM]
27 | C[C@@H](O)[C@H](NC(=O)CS)C(=O)N[C@@H](CCCN=C(N)N)C(N)=O | 616
28 | NCCCC[C@H](NC(=O)CS)C(=O)N[C@@H](Cc1ccccc1)C(N)=O | 126
29 | N=C(N)NCCC[C@H](NC(=O)[C@H](CO)NC(=O)CS)C(N)=O | 444
30 | NC(=O)[C@H](CC(=O)O)NC(=O)[C@H](CCCN=C(N)N)NC(=O)CS | 650
31 | NC(=O)[C@H](CC(=O)O)NC(=O)[C@H](Cc1ccc(O)cc1)NC(=O)CS | 5.5
32 | NC(=O)CC[C@H](NC(=O)CS)C(=O)N[C@@H](CCCN=C(N)N)C(N)=O | 217
33 | CC(C)C[C@H](NC(=O)[C@H](Cc1ccccc1)NC(=O)CS)C(N)=O | 645
34 | CSCC[C@H](NC(=O)CS)C(=O)N[C@@H](Cc1ccccc1)C(N)=O | 867
35 | NC(=O)[C@H](CCCN=C(N)N)NC(=O)[C@H](Cc1ccc(O)cc1)NC(=O)CS | 3
36 | CC(C)C[C@H](NC(=O)[C@H](C)NC(=O)CS)C(N)=O | 21
37 | CC(C)C[C@H](NC(=O)[C@H](Cc1c[nH]c2ccccc12)NC(=O)CS)C(N)=O | 3.7
38 | CC(C)C[C@H](NC(=O)[C@H](CC(C)C)NC(=O)CS)C(N)=O | 53
39 | NC(=O)[C@H](Cc1ccccc1)NC(=O)CNC(=O)CS | 51
40 | NCCCC[C@H](NC(=O)[C@@H]1CCCN1C(=O)CS)C(N)=O | 766
41 | CC[C@@H](C)[C@H](NC(=O)CS)C(=O)N[C@@H](CC(=O)O)C(N)=O | 142
42 | CC(C)[C@H](NC(=O)[C@H](Cc1c[nH]c2ccccc12)NC(=O)CS)C(N)=O | 4.1
43 | NCCCC[C@H](NC(=O)[C@H](CC(=O)O)NC(=O)CS)C(N)=O | 491
44 | NCCCC[C@H](NC(=O)[C@H](Cc1ccccc1)NC(=O)CS)C(N)=O | 76
45 | C[C@H](NC(=O)CS)C(=O)N[C@@H](Cc1c[nH]c2ccccc12)C(N)=O | 395
46 | NC(=O)C[C@H](NC(=O)CS)C(=O)N[C@@H](Cc1c[nH]c2ccccc12)C(N)=O | 70
47 | NC(=O)[C@H](Cc1c[nH]c2ccccc12)NC(=O)[C@H](Cc1c[nH]c2ccccc12)NC(=O)CS | 49
48 | CSCC[C@H](NC(=O)CS)C(=O)N[C@@H](CCCNC(=N)N)C(N)=O | 6.6
49 | CC(C)[C@H](NC(=O)CNC(=O)CS)C(N)=O | 457
50 | CC(C)[C@H](NC(=O)[C@H](Cc1ccc(O)cc1)NC(=O)CS)C(N)=O | 0.77
51 | NC(=O)[C@H](Cc1ccccc1)NC(=O)[C@H](Cc1cnc[nH]1)NC(=O)CS | 21
52 | NC(=O)[C@H](Cc1ccccc1)NC(=O)[C@H](Cc1ccc(O)cc1)NC(=O)CS | 6.5

Row | SMILES | Ki [µM]
53 | CC(C)C[C@H](NC(=O)CS)C(=O)N[C@@H](CCCCN)C(N)=O | 14
54 | NCCCC[C@H](NC(=O)[C@H](Cc1ccc(O)cc1)NC(=O)CS)C(N)=O | 8.5
55 | CC(C)[C@H](NC(=O)[C@H](CCCCN)NC(=O)CS)C(N)=O | 555
56 | CC[C@@H](C)[C@H](NC(=O)CS)C(=O)N[C@@H](CCCCN)C(N)=O | 190
57 | NCCCC[C@H](NC(=O)CNC(=O)CS)C(N)=O | 451
58 | NC(=O)[C@H](CCCN=C(N)N)NC(=O)CNC(=O)CS | 641
59 | CC(C)[C@H](NC(=O)[C@H](CS)NC(=O)CS)C(N)=O | 161
60 | NC(=O)[C@H](Cc1c[nH]c2ccccc12)NC(=O)[C@H](Cc1ccccc1)NC(=O)CS | 206
61 | CC(C)[C@H](NC(=O)[C@H](CC(N)=O)NC(=O)CS)C(N)=O | 180
62 | CC(C)[C@H](NC(=O)[C@@H](NC(=O)CS)[C@@H](C)O)C(N)=O | 377
63 | CC[C@@H](C)[C@H](NC(=O)CS)C(=O)N[C@@H](CC(C)C)C(N)=O | 1.3
64 | CC(C)C[C@H](NC(=O)CS)C(=O)N[C@@H](Cc1c[nH]c2ccccc12)C(N)=O | 300
65 | NCCCC[C@H](NC(=O)CS)C(=O)N[C@@H](CC(=O)O)C(N)=O | 971
66 | CC(C)C[C@H](NC(=O)[C@H](Cc1ccc(O)cc1)NC(=O)CS)C(N)=O | 33
67 | NC(=O)[C@H](Cc1ccccc1)NC(=O)[C@H](CCC(=O)O)NC(=O)CS | 146
68 | CC(C)C[C@H](NC(=O)[C@H](CO)NC(=O)CS)C(N)=O | 510
69 | CC(C)[C@H](NC(=O)[C@H](CCC(N)=O)NC(=O)CS)C(N)=O | 937
70 | NCCCC[C@H](NC(=O)[C@H](CCC(N)=O)NC(=O)CS)C(N)=O | 380
71 | NC(=O)[C@H](Cc1c[nH]c2ccccc12)NC(=O)[C@H](CC(=O)O)NC(=O)CS | 207
72 | NC(=O)[C@H](Cc1c[nH]c2ccccc12)NC(=O)CNC(=O)CS | 122
73 | NC(=O)C[C@H](NC(=O)CS)C(=O)N[C@@H](Cc1ccccc1)C(N)=O | 37
74 | N=C(N)NCCC[C@H](NC(=O)CS)C(=O)N[C@@H](CCCCN)C(N)=O | 135
75 | CC(C)C[C@H](NC(=O)[C@H](CCCCN)NC(=O)CS)C(N)=O | 123
76 | CC(C)[C@H](NC(=O)[C@H](CCC(=O)O)NC(=O)CS)C(N)=O | 730
77 | CC[C@@H](C)[C@H](NC(=O)CS)C(=O)N[C@H](C(N)=O)C(C)C | 1.8
78 | CSCC[C@H](NC(=O)CS)C(=O)N[C@@H](CCCCN)C(N)=O | 3.9

Row | SMILES | Ki [µM]
79 | C[C@@H](O)[C@H](NC(=O)CS)C(=O)N[C@@H](Cc1ccccc1)C(N)=O | 225
80 | CC(C)C[C@H](NC(=O)[C@@H](NC(=O)CS)C(C)C)C(N)=O | 69
81 | CC[C@@H](C)[C@H](NC(=O)CS)C(=O)N[C@@H](Cc1c[nH]c2ccccc12)C(N)=O | 366
82 | NC(=O)[C@H](Cc1c[nH]c2ccccc12)NC(=O)[C@H](CCC(=O)O)NC(=O)CS | 704
83 | CSCC[C@H](NC(=O)CS)C(=O)N[C@@H](CC(=O)O)C(N)=O | 7
84 | NC(=O)[C@H](Cc1ccccc1)NC(=O)[C@H](Cc1ccccc1)NC(=O)CS | 146
85 | CC(C)C[C@H](NC(=O)[C@H](CCC(N)=O)NC(=O)CS)C(N)=O | 540
86 | NC(=O)CC[C@H](NC(=O)CS)C(=O)N[C@@H](Cc1c[nH]c2ccccc12)C(N)=O | 91
87 | CC(C)[C@H](NC(=O)CS)C(=O)N[C@@H](Cc1ccccc1)C(N)=O | 72
88 | C[C@H](NC(=O)CS)C(=O)N[C@@H](CCCCN)C(N)=O | 153
89 | CC(C)[C@H](NC(=O)[C@@H]1CCCN1C(=O)CS)C(N)=O | 157
90 | CC(C)[C@H](NC(=O)[C@H](C)NC(=O)CS)C(N)=O | 51
91 | NC(=O)[C@H](Cc1c[nH]c2ccccc12)NC(=O)[C@H](Cc1ccc(O)cc1)NC(=O)CS | 14
92 | N=C(N)NCCC[C@H](NC(=O)[C@H](CS)NC(=O)CS)C(N)=O | 646
93 | CC(C)C[C@H](NC(=O)CS)C(=O)N[C@@H](CCCNC(=N)N)C(N)=O | 623
94 | C[C@@H](O)[C@H](NC(=O)CS)C(=O)N[C@@H](Cc1c[nH]c2ccccc12)C(N)=O | 65
95 | N=C(N)NCCC[C@H](NC(=O)[C@H](CC(N)=O)NC(=O)CS)C(N)=O | 280
96 | NC(=O)[C@H](Cc1c[nH]c2ccccc12)NC(=O)[C@H](CCCN=C(N)N)NC(=O)CS | 125
97 | CC(C)C[C@H](NC(=O)[C@H](CC(=O)O)NC(=O)CS)C(N)=O | 118
98 | CC(C)C[C@H](NC(=O)CNC(=O)CS)C(N)=O | 138
99 | CSCC[C@H](NC(=O)CS)C(=O)N[C@H](C(N)=O)C(C)C | 98
100 | NCCCC[C@H](NC(=O)[C@H](Cc1c[nH]cn1)NC(=O)CS)C(N)=O | 332
101 | NC(=O)[C@H](CCCN=C(N)N)NC(=O)[C@H](CC(=O)O)NC(=O)CS | 551
102 | CC(C)[C@H](NC(=O)[C@@H](NC(=O)CS)C(C)C)C(N)=O | 10
